Laboratory results reported in BindingDB's records for doi:10.1016/j.bmcl.2003.10.074 (University of Kentucky, 2004).

Test: Binding affinity towards blood brain barrier choline transporter at 10 uM using rat brain

| Structure (SMILES) | Ki |
| --- | --- |
| CCCCCCCC[n+]1cccc([C@@H]2CCCN2C)c1 [(S)-3-(1-methylpyrrolidin-2-yl)-1-octylpyridinium iodide] | 49 µM |
| CCCCCCCCCC[n+]1cccc([C@@H]2CCCN2C)c1 [1-Decyl-3-((S)-1-methyl-pyrrolidin-2-yl)-pyridinium; iodide] | 27 µM |
| CCCC[n+]1ccccc1 [1-Butyl-pyridinium] | 250 µM |
| CCCCCCCC[n+]1ccccc1 [1-Octyl-pyridinium; iodide] | 250 µM |
| CCCCCCCC[N+](C)(C)CCO [(2-Hydroxy-ethyl)-dimethyl-octyl-ammonium] | 10 µM |
